For the assay, the target named is A2 Adenosine receptor (Rattus norvegicus, UniProt P30543). Nature of the assay: biochemical. As to the method: The membrane preparation is obtained as follows: Frozen pellets of PC12 cells are washed twice with ice cold, buffered, physiological saline and the cells recovered by centrifugation (1500 G) at 3° C. The separated cells are then suspended in hypotonic solution (distilled water), allowed to stand on ice for 30 minutes and are then carefully homogenized using a standard high-speed homogeniser with periodic ice-cooling to obtain a fine suspension. […] The mixture is then incubated at 37° C. After 20 minutes, the reaction is terminated by dilution with ice-cold buffer and transfer onto ice. The material obtained containing the cell membranes is recovered by centrifugation and washed by resuspension in buffer and recentrifugation. The pellet produced is then resuspended in ice-cold buffer using a hand-driven homogenizer. The resultant membrane suspension is frozen and stored under liquid nitrogen until required.
After incubation, the samples are rapidly filtered over glass-fibre mats and the filter mats are washed to remove non-receptor-bound radioligand. Receptor-bound radioligand entrapped on the filter mats is then determined by liquid scintillation counting. […] The specific binding (defined as the difference between the total binding and the non-specific binding) in the presence of the particular test compound is determined and compared with the control value.

Chain of A2 Adenosine receptor (P30543 whole entry): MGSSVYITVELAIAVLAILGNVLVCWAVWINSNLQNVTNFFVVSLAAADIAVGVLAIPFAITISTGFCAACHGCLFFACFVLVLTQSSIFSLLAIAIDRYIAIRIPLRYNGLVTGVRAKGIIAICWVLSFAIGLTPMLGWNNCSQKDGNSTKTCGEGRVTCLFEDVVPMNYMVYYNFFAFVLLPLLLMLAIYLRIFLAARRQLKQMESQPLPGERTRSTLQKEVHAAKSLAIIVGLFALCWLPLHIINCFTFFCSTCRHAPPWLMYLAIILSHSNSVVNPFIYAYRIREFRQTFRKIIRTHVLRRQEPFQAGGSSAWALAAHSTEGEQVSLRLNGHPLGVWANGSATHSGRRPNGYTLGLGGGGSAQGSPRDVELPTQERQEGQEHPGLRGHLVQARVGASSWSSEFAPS

As a reminder, the IC50 is the concentration needed to halve the response being measured. A lower IC50 goes with inhibition by little substance. Take `Nc1nc(Oc2ccccc2)nc2nc(-c3ccco3)nn12` [Example 2, 7-amino-2-(2-furyl)-5-phenoxy[1,2,4]triazolo[1,5-a][1,3,5]triazine]: the IC50 was roughly 0.01 µM.

Values taken from patent publication US5326869A (priority 1991, dated 1994).
